Assay results: ChEMBL document CHEMBL5136989, “A review on the treatment of multiple myeloma with small molecular agents in the past five years” (Eur J Med Chem, 2022)

System: Proteasome
Assay: Inhibition of proteasome (unknown origin)
Type: subcellular, Homo sapiens
Settings: not given

SMILES | IC50
CC(=O)N[C@@H](CCc1ccccc1)C(=O)N[C@@H](CC(C)C)C(=O)N[C@@H](Cc1ccccc1)C(=O)N[C@@H](CC(C)C)C(=O)[C@]1(C)CO1 | 260 nM
CC(C)C[C@H](NC(=O)[C@H](CCc1ccccc1)NC(=O)CN1CCOCC1)C(=O)N[C@@H](Cc1ccccc1)C(=O)N[C@@H](CC(C)C)C(=O)[C@@]1(C)CO1 [CARFILZOMIB] | 33 nM
CC[C@H](C)[C@H](NC(=O)[C@H]([C@@H](C)CC)N(C)C(C)=O)C(=O)N[C@H](C(=O)N[C@@H](CC(C)C)C(=O)[C@@]1(C)CO1)[C@@H](C)O [EPOXOMYCIN] | 261 nM
CC(C)C[C@H](NC(=O)CNC(=O)c1cc(Cl)ccc1Cl)B(O)O [IXAZOMIB] | 5 nM
NS(=O)(=O)OC[C@@H]1C[C@@H](n2ccc3c(N[C@H]4CCc5ccccc54)ncnc32)C[C@@H]1O [PEVONEDISTAT] | 4 nM

System: not listed separately
Assay: Cytotoxicity against human multiple myeloma cells by WST-1 assay
Type: functional, cell-based
Settings: Multiple myeloma cell

SMILES | IC50
CC(=O)c1cc([N+](=O)[O-])c(Sc2cccc(Cl)c2Cl)s1 | 6000 nM
CN(CCCNC(=O)c1ccc2nc3c(c(Cl)c2c1)CCCC3)Cc1ccccc1 | 28100 nM
CCN(CCCNC(=O)c1ccc2nc3c(c(Cl)c2c1)CCCC3)Cc1ccccc1 | 22600 nM
N#C/C(=C/c1cccc(Br)n1)C(=O)NCc1cccc(CNC(=O)/C(C#N)=C\c2cccc(Br)n2)c1 | 240 nM
CCc1c(-c2ccc3[nH]ncc3c2)cnc(N)c1-c1ccc(O)cc1 | 750 nM
CCc1c(-c2ccc(C(=O)NC)nc2)cnc(N)c1-c1ccc(O)cc1 | 1340 nM
C=CC(=O)N1CC/C(=C\c2ccc(F)c([N+](=O)[O-])c2)C(=O)/C(=C/c2ccc(F)c([N+](=O)[O-])c2)C1 | 43 nM
CCCSc1nc(NCCN)c2nnn(Cc3ccc(Cl)cc3)c2n1 | 1100 nM
O=C1c2ccccc2C(=O)c2oc(-c3cccnc3)nc21 | 100 nM
CC(NC(=O)/C(C#N)=C/c1cccc(/C=C(\C#N)C(=O)NC(C)c2ccccc2)c1)c1ccccc1 (stereo not drawn) | 400 nM
CS(=O)(=O)N1CCN(C(=S)Nc2ccc([N+](=O)[O-])cc2)CC1 | 33900 nM
CCCC(NC(=O)/C(C#N)=C/c1cccc(Br)n1)c1ccccc1 (stereo not drawn) | 1600 nM
CN(C)CCC(CSc1ccccc1)Nc1ccc(S(=O)(=O)NC(=O)c2ccc(N3CCN(Cc4ccccc4-c4ccc(Cl)cc4)CC3)cc2)cc1[N+](=O)[O-] (stereo not drawn) | < 500 nM
O=C(CBr)N1CC([N+](=O)[O-])([N+](=O)[O-])C1 [NIBROZETONE] | 1250 nM

System: not listed separately
Assay: Immunomodulatory activity in human MM cells
Type: functional, cell-based
Settings: multiple myeloma cell

SMILES | IC50
Cc1ccc(NC(=O)NCc2ccc3c(c2)CN(C2CCC(=O)NC2=O)C3=O)cc1Cl (stereo not drawn) | 0.3 nM
O=C1CC[C@H](N2Cc3c(OCc4ccc(CN5CCOCC5)cc4)cccc3C2=O)C(=O)N1 [IBERDOMIDE] | 13 nM
Nc1cccc2c1CN(C1CCC(=O)NC1=O)C2=O (stereo not drawn) [LENALIDOMIDE] | 81 nM
Nc1cccc2c1C(=O)N(C1CCC(=O)NC1=O)C2=O (stereo not drawn) [POMALIDOMIDE] | 35 nM
O=C1CCC(N2C(=O)c3ccccc3C2=O)C(=O)N1 (stereo not drawn) [THALIDOMIDE] | 194000 nM

System: Multiple myeloma cancer stem cell
Assay: Cytotoxicity against human Myeloma-stem like cells
Type: functional, cell-based
Settings: not given

SMILES | IC50
C=CCn1c(=O)c2cnc(Nc3ccc(N4CCN(C)CC4)cc3)nc2n1-c1cccc(C(C)(C)O)n1 [ADAVOSERTIB] | 310 nM

System: not listed separately
Assay: Anticancer activity in human multiple myeloma cells
Type: functional, cell-based
Settings: Multiple myeloma cell

SMILES | IC50
O=C(/C=C\n1cnc(-c2cc(C(F)(F)F)cc(C(F)(F)F)c2)n1)NNc1cnccn1 [SELINEXOR] | 44 nM
CC1(C)CCC(CN2CCN(c3ccc(C(=O)NS(=O)(=O)c4ccc(NCC5CCOCC5)c([N+](=O)[O-])c4)c(Oc4cnc5[nH]ccc5c4)c3)CC2)=C(c2ccc(Cl)cc2)C1 [VENETOCLAX] | 26.7 nM

System: not listed separately
Assay: Induction of mitotic arrest in human multiple myeloma cells
Type: functional, cell-based
Settings: multiple myeloma cell

SMILES | IC50
CN(C)c1ccccc1CN1CCCN(Cc2ccccc2N(C)C)C1c1ccncc1 | 5000 nM
Cc1ccc(CN(CC(O)COc2cccc3[nH]ccc23)C(C)(C)C)cc1 (stereo not drawn) | 28300 nM
CON(C)C(=O)N1N=C(c2cc(F)ccc2F)S[C@@]1(CCCN)c1ccccc1 [FILANESIB] | 6.1 nM
O=[N+]([O-])c1ccc(O)c2ncccc12 [NITROXOLINE] | 5250 nM
c1cc(CN2CCCNCCNCCCNCC2)ccc1CN1CCCNCCNCCCNCC1 [PLERIXAFOR] | 27 nM
